# Measurements taken from patent US20250263383A1, “NOVEL INHIBITORS OF GUANOSINE MONOPHOSPHATE SYNTHETASE AS THERAPEUTIC AGENTS” (University of Southern California, priority 2018, published 2025).
# Assays:
# HL-60(TB) cells = experiment: Sulforhodamin B viability assay; type: cell-based; settings: Leukemia, negative values represent cell mortality percentage
# NCI-H23 cells = experiment: Sulforhodamin B viability assay; type: cell-based; settings: NCI-H23, Non-Small Cell Lung Cancer; negative values represent cell mortality percentage
# HT29 cells = experiment: Sulforhodamin B viability assay; type: cell-based; settings: HT29, Colon Cancer; negative values represent cell mortality percentage
# SF-539 cells = experiment: Sulforhodamin B viability assay; type: cell-based; settings: SF-539, CNS Cancer; negative values represent cell mortality percentage
# SK-MEL-5 cells = experiment: Sulforhodamin B viability assay; type: cell-based; settings: SK-MEL-5, Melanoma; negative values represent cell mortality percentage
# OVCAR-5 cells = experiment: Sulforhodamin B viability assay; type: cell-based; settings: OVCAR-5, Ovarian Cancer; negative values represent cell mortality percentage
# UO-31 cells = experiment: Sulforhodamin B viability assay; type: cell-based; settings: UO-31, Renal Cancer; negative values represent cell mortality percentage
# BT-549 cells = experiment: Sulforhodamin B viability assay; type: cell-based; settings: BT-549, Breast Cancer; negative values represent cell mortality percentage
# [1] = system: eight distinct cancer cell lines; experiment: Sulforhodamin B viability assay, all cell lines; type: cell-based; settings: across all the eight cell lines tested
# recombinant human GMPS = recombinant human GMPS (Homo sapiens (Human), UniProt P49915); experiment: enzymatic assay against recombinant GMPS, UV absorbance at 290 nm; settings: for IC50 against GMPS, in words: recombinant GMPS; for IC50: recombinant human GMPS
# Chain of recombinant human GMPS (P49915 whole entry): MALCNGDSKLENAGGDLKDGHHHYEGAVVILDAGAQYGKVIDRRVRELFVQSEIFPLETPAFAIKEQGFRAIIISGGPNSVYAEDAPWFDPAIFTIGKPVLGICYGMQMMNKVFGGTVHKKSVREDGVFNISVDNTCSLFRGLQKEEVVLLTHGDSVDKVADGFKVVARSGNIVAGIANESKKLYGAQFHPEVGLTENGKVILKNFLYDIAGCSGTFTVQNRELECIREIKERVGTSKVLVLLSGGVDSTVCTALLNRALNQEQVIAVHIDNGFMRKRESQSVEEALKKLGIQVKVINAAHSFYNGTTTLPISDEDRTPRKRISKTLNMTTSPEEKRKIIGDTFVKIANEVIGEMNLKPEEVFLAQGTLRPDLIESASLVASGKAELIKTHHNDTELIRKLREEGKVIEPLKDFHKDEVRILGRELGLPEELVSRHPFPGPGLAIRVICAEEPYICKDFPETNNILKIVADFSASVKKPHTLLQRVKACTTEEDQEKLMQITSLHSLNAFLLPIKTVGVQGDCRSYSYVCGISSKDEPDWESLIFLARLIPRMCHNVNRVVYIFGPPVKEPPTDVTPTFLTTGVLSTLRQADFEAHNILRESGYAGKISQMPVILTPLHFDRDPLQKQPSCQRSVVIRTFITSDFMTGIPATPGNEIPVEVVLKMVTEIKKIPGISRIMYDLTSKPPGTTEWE
# Experimental: The potency of the five compounds was tested against recombinant GMPS in an enzymatic assay by monitoring UV absorbance at 290 nm and by determining an IC50.
Compound,Cell survival (HL-60(TB) cells) [%],Cell survival (NCI-H23 cells) [%],Cell survival (HT29 cells) [%],Cell survival (SF-539 cells) [%],Cell survival (SK-MEL-5 cells) [%],Cell survival (OVCAR-5 cells) [%],Cell survival (UO-31 cells) [%],Cell survival (BT-549 cells) [%],cell death [1] [%],"IC50 against GMPS, in words (recombinant human GMPS)",IC50 (recombinant human GMPS) [nM]
"C#CCOc1cccc(Nc2ncnc3ccc(NC(=O)CCl)cc23)c1 [Compound 1, 2-chloro-N-(4-((3-(prop-2-yn-1-yloxy)phenyl)amino)quinazolin-6-yl) acetamide]",−58.4,−66.8,−78.6,−86.6,−92.8,−70.1,−87.8,−68.9,> 50,–,–
"COc1cccc(Nc2ncnc3ccc(NC(C)=O)cc23)c1 [Compound 3, N-(4-((3-methoxyphenyl)amino)quinazolin-6-yl) acetamide]",–,–,–,–,–,–,–,–,–,less active,> 1000
"C#CCOc1cccc(C(=O)Nc2cccc(NC(=O)CCl)c2)c1 [Compound 5, N-(3-(2-chloroacetamido)phenyl)-3-(prop-2-yn-1-yloxy)benzamide]",–,–,–,–,–,–,–,–,–,less active,> 1000
